Source: ChEMBL document CHEMBL4513141, “CO-ADD screening of NIH (USA) - Clinical Collection” (2021)
≈ marks a conversion by molar mass, not a printed value. Where a name gives a salt, the structure may show the parent alone.

Assays:
HEK293 = assay: cells; type: functional, Homo sapiens, ATCC CRL1573; settings: Homo sapiens, ATCC CRL1573, HEK293; ASSAY_TEST Inhibition of Cell Viability; detection method Resazurin; Fluorescence (ex560/em590); MEDIA DMEM with 10% FBS; plate type 384well; TC; CORNING #3712; time 18 hr
Staphylococcus aureus = assay: microbe, parasite or virus in culture; settings: ATCC 43300, 18 h, ASSAY_TEST Inhibition of Bacterial Growth, detection method Absorption (OD600), MEDIA CAMHB, plate type 384well, NBS, CORNING #3640
Description: Antibacterial activity against Staphylococcus aureus MRSA ATCC 43300 (CO-ADD:GP_020); MIC in CAMBH media, using NBS plates, by OD(600)

Escherichia coli = assay: microbe, parasite or virus in culture; settings: ATCC 25922, 18 h, ASSAY_TEST Inhibition of Bacterial Growth, detection method Absorption (OD600), MEDIA CAMHB, plate type 384well, NBS, CORNING #3640
Description: Antibacterial activity against Escherichia coli ATCC 25922 (CO-ADD:GN_001); MIC in CAMBH media using NBS plates, by OD(600)

Klebsiella pneumoniae = assay: microbe, parasite or virus in culture; settings: ATCC 700603, 18 h, ASSAY_TEST Inhibition of Bacterial Growth, detection method Absorption (OD600), MEDIA CAMHB, plate type 384well, NBS, CORNING #3640
Description: Antibacterial activity against Klebsiella pneumoniae MDR ATCC 70063 (CO-ADD:GN_003); MIC in CAMBH media using NBS plates, by OD(600)

Pseudomonas aeruginosa = assay: microbe, parasite or virus in culture; settings: ATCC 27853, 18 h, ASSAY_TEST Inhibition of Bacterial Growth, detection method Absorption (OD600), MEDIA CAMHB, plate type 384well, NBS, CORNING #3640
Description: Antibacterial activity against Pseudomonas aeruginosa ATCC 27853 (CO-ADD:GN_042); MIC in CAMBH media using NBS plates, by OD(600)

Acinetobacter baumannii = assay: microbe, parasite or virus in culture; settings: ATCC 19606, 18 h, ASSAY_TEST Inhibition of Bacterial Growth, detection method Absorption (OD600), MEDIA CAMHB, plate type 384well, NBS, CORNING #3640
Description: Antibacterial activity against Acinetobacter baumannii ATCC 19606 (CO-ADD:GN_034); MIC in CAMBH media using NBS plates, by OD600

Candida albicans = assay: microbe, parasite or virus in culture; settings: ATCC 90028, ASSAY_TEST Inhibition of Fungal Growth, detection method Absorption (OD530), plate type 384well, NBS, CORNING #3640
Description: Antifungal activity against Candida albicans ATCC 90028 (CO-ADD:FG_001); MIC in YNB media using NBS plates, by OD630

Description for Cryptococcus neoformans: Antifungal activity against Cryptococcus neoformans H99 ATCC 208821 (CO-ADD:FG_002); MIC in YNB media using NBS plates, by Resazurin OD(600-570)

Row | Structure (SMILES) | CC50 (HEK293) | MIC (Cryptococcus neoformans) | MIC (Staphylococcus aureus) | MIC (Escherichia coli) | MIC (Klebsiella pneumoniae) | MIC (Pseudomonas aeruginosa) | MIC (Acinetobacter baumannii) | MIC (Candida albicans)
1 | CCOC(=O)CCC(=O)OC1C(OC2C(C)C(OC3CC(C)(OC)C(O)C(C)O3)C(C)C(=O)OC(CC)C(C)(O)C(O)C(C)C(=O)C(C)CC2(C)O)OC(C)CC1N(C)C (stereo not given) | > 10 µM | > 10 µM | > 10 µM | > 10 µM | > 10 µM | > 10 µM | > 10 µM | > 10 µM
2 | CO[C@H]1/C=C/O[C@@]2(C)Oc3c(C)c(O)c4c(O)c(c(C=NN5CCN(C)CC5)c(O)c4c3C2=O)NC(=O)/C(C)=C\C=C\[C@H](C)[C@H](O)[C@@H](C)[C@@H](O)[C@@H](C)[C@H](OC(C)=O)[C@@H]1C | > 10 µM | > 10 µM | ≤ 0.0781 µM | 10 µM (≈ 8.23 µg/mL) | > 10 µM | 2.5 µM (≈ 2.06 µg/mL) | > 10 µM | > 10 µM
3 | CC[C@H]1OC(=O)[C@H](C)[C@@H](O[C@H]2C[C@@](C)(OC)[C@@H](O)[C@H](C)O2)[C@H](C)[C@@H](O[C@@H]2O[C@H](C)C[C@H](N(C)C)[C@H]2O)[C@](C)(OC)C[C@@H](C)C(=O)[C@H](C)[C@@H](O)[C@]1(C)O [CLARITHROMYCIN] | > 10 µM | > 10 µM | > 10 µM | > 10 µM | > 10 µM | 10 µM (≈ 7.48 µg/mL) | > 10 µM | > 10 µM
4 | CCOc1ccc2ccccc2c1C(=O)N[C@@H]1C(=O)N2[C@@H]1SC(C)(C)[C@@H]2C(=O)O [NAFCILLIN SODIUM] | > 10 µM | > 10 µM | 1.25 µM | > 10 µM | > 10 µM | > 10 µM | > 10 µM | > 10 µM
5 | COc1cc(Cc2cnc(N)nc2N)cc(OC)c1OC [TRIMETHOPRIM] | > 10 µM | > 10 µM | 5 µM (≈ 1.45 µg/mL) | 1.25 µM (≈ 0.363 µg/mL) | 10 µM (≈ 2.9 µg/mL) | > 10 µM | > 10 µM | > 10 µM
6 | Oc1c(Cl)cc(Cl)c2cccnc12 [CHLOROXINE] | > 10 µM | 2.5 µM (≈ 0.535 µg/mL) | > 10 µM | > 10 µM | > 10 µM | > 10 µM | > 10 µM | 1.25 µM (≈ 0.268 µg/mL)
7 | CCN1CCN(c2cc3c(cc2F)c(=O)c(C(=O)O)cn3C2CC2)CC1 [ENROFLOXACIN] | > 10 µM | > 10 µM | 0.312 µM (≈ 0.112 µg/mL) | ≤ 0.0781 µM | 2.5 µM (≈ 0.899 µg/mL) | 0.312 µM (≈ 0.112 µg/mL) | 5 µM (≈ 1.8 µg/mL) | > 10 µM
8 | C/C(=C\C(=O)OCCCCCCCCC(=O)O)C[C@@H]1OC[C@H](C[C@@H]2O[C@H]2[C@@H](C)[C@H](C)O)[C@@H](O)[C@H]1O [MUPIROCIN] | > 10 µM | > 10 µM | 0.312 µM (≈ 0.156 µg/mL) | > 10 µM | > 10 µM | > 10 µM | > 10 µM | 10 µM (≈ 5.01 µg/mL)
9 | O=C1CN(/N=C/c2ccc([N+](=O)[O-])o2)C(=O)N1 [NITROFURANTOIN] | > 10 µM | > 10 µM | > 10 µM | > 10 µM | > 10 µM | > 10 µM | > 10 µM | > 10 µM
10 | Nc1ncn([C@@H]2O[C@H](CO)[C@@H](O)[C@H]2O)c(=O)n1 [AZACITIDINE] | > 10 µM | > 10 µM | > 10 µM | 10 µM (≈ 2.44 µg/mL) | > 10 µM | > 10 µM | > 10 µM | > 10 µM
11 | CC(=O)N1CCN(c2ccc(OCC3COC(Cn4ccnc4)(c4ccc(Cl)cc4Cl)O3)cc2)CC1 (stereo not given) [KETOCONAZOLE] | > 10 µM | 2.5 µM (≈ 1.33 µg/mL) | > 10 µM | > 10 µM | > 10 µM | > 10 µM | > 10 µM | 0.156 µM (≈ 0.0831 µg/mL)
12 | CC1COc2c(N3CCN(C)CC3)c(F)cc3c(=O)c(C(=O)O)cn1c23 (stereo not given) [OFLOXACIN] | > 10 µM | > 10 µM | 1.25 µM (≈ 0.452 µg/mL) | ≤ 0.0781 µM | 5 µM (≈ 1.81 µg/mL) | 1.25 µM (≈ 0.452 µg/mL) | 5 µM (≈ 1.81 µg/mL) | > 10 µM
13 | CCN1CCN(C(=O)N[C@@H](C(=O)N[C@@H]2C(=O)N3[C@@H]2SC(C)(C)[C@@H]3C(=O)O)c2ccccc2)C(=O)C1=O [PIPERACILLIN SODIUM] | > 10 µM | > 10 µM | > 10 µM | 10 µM | > 10 µM | > 10 µM | 10 µM | > 10 µM
14 | Cc1onc(-c2ccccc2)c1C(=O)NC1C(=O)N2C1SC(C)(C)C2C(=O)O (stereo not given) | > 10 µM | > 10 µM | > 10 µM | > 10 µM | > 10 µM | > 10 µM | > 10 µM | > 10 µM
15 | CCc1oc2ccccc2c1C(=O)c1cc(Br)c(O)c(Br)c1 [BENZBROMARONE] | > 10 µM | > 10 µM | > 10 µM | > 10 µM | > 10 µM | > 10 µM | > 10 µM | > 10 µM
16 | O=c1[nH]c(=O)n(C2CC(O)C(CO)O2)cc1F (stereo not given) | 2.37 µM | > 10 µM | ≤ 0.0781 µM | 10 µM (≈ 2.46 µg/mL) | 5 µM (≈ 1.23 µg/mL) | > 10 µM | > 10 µM | > 10 µM
17 | NC1CCN(c2nc3c(cc2F)c(=O)c(C(=O)O)cn3-c2ccc(F)cc2F)C1 (stereo not given) [TOSUFLOXACIN TOSYLATE] | > 10 µM | > 10 µM | ≤ 0.0781 µM | ≤ 0.0781 µM | 1.25 µM | 0.312 µM | 0.625 µM | > 10 µM
18 | OC(Cn1cncn1)(Cn1cncn1)c1ccc(F)cc1F [FLUCONAZOLE] | > 10 µM | > 10 µM | > 10 µM | > 10 µM | > 10 µM | > 10 µM | > 10 µM | 2.5 µM (≈ 0.766 µg/mL)
19 | CO[C@H]1/C=C/O[C@@]2(C)Oc3c(C)c(O)c4c(O)c(c(C=NN5CCN(C6CCCC6)CC5)c(O)c4c3C2=O)NC(=O)/C(C)=C\C=C\[C@H](C)[C@H](O)[C@@H](C)[C@@H](O)[C@@H](C)[C@H](OC(C)=O)[C@@H]1C | > 10 µM | > 10 µM | ≤ 0.0781 µM | 10 µM (≈ 8.77 µg/mL) | > 10 µM | 10 µM (≈ 8.77 µg/mL) | > 10 µM | > 10 µM
20 | CC1c2cccc(O)c2C(=O)C2=C(O)C3(O)C(O)=C(C(N)=O)C(=O)C(N(C)C)C3C(O)C21 (stereo not given) | > 10 µM | > 10 µM | 0.625 µM (≈ 0.278 µg/mL) | 1.25 µM (≈ 0.556 µg/mL) | > 10 µM | 0.312 µM (≈ 0.139 µg/mL) | > 10 µM | > 10 µM
